{
  "source": "PubChem BioAssay AID1259409",
  "about": "(Chemical Carcinogenesis Research Information System (CCRIS), 2018)",
  "origin": "cited, not measured here",
  "test_system": "rodent chemically induced tumor inhibition, incidence and multiplicity",
  "assay": "CCRIS tumor inhibitor studies",
  "data": [
    {"smiles": "CC(=O)O[C@@H]1C(=O)O[C@H]2[C@@H]1OC(=O)[C@@H]2OC(C)=O", "values": [
      {"measurement": "tumour outcome (control, treated, inhibition, significance)", "setting": "Carcinogen: 2-(ACETYLAMINO)FLUORENE, 6292-55-3, Dose [Inhibitor]: 1.2% IN DIET SIMULTANEOUSLY WITH CARCINOGEN (STUDY DURATION: 30 WK), Route [Inhibitor]: ORAL, Species: RAT, Strain/Sex: WISTAR/MALE, Target Tissue: Type of Lesion: URINARY BLADDER: TUMOR, Dose [Carcinogen]: 0.04% IN DIET SUPPLEMENTED WITH 1.4% D,L-TRYPTOPHAN, Promoter: NONE USED", "value": "7/45 (20%), 11/40 (28%), -40%, not calculated"},
      {"measurement": "tumour outcome (control, treated, inhibition, significance)", "setting": "Carcinogen: 2-(ACETYLAMINO)FLUORENE, 6292-55-3, Dose [Inhibitor]: 1.2% IN DIET SIMULTANEOUSLY WITH CARCINOGEN (STUDY DURATION: 30 WK), Route [Inhibitor]: ORAL, Species: RAT, Strain/Sex: WISTAR/MALE, Target Tissue: Type of Lesion: URINARY BLADDER: TUMOR, Dose [Carcinogen]: 0.04% IN VITAMIN B6 DEFICIENT DIET, Promoter: NONE USED", "value": "6/33 (18%), 2/38 (5%), 72%, not calculated"},
      {"measurement": "tumour outcome (control, treated, inhibition, significance)", "setting": "Carcinogen: 7,12-DIMETHYLBENZ[A]ANTHRACENE, 57-97-6, Dose [Inhibitor]: 400 MG/KG, 30 MIN BEFORE DMBA TREATMENT AND 3 HR AFTER DMBA TREATMENT (STUDY DURATION: 36 WK), Route [Inhibitor]: INTRAGASTRIC, Species: RAT, Strain/Sex: SPRAGUE-DAWLEY/FEMALE, Target Tissue: Type of Lesion: MAMMARY GLAND: TUMOR, Dose [Carcinogen]: 130 MG/KG ONCE, Promoter: NONE USED", "value": "92%, 22%, 76%, not calculated"}
    ]},
    {"smiles": "N[C@@H](CCC(=O)N[C@@H](CS)C(=O)NCC(=O)O)C(=O)O", "values": [
      {"measurement": "tumour outcome (control, treated, inhibition, significance)", "setting": "Carcinogen: TRANS-5-AMINO-3-[2-(5-NITRO-2-FURYL)VINYL]-1,2,4-OXADIAZOLE;SQL8506, 28754-68-9, Carcinogen: TRANS-5-AMINO-3-[2-(5-NITRO-2-FURYL)VINYL]-1,2,4-OXADIAZOLE;SQL8506, 28754-68-9, Dose [Inhibitor]: 400 MG/KG 16 HR BEFORE THE 1ST CARCINOGEN DOSE FOLLOWED BY ADDITIONAL INJECTIONS IMMEDIATELY BEFORE EACH DOSE OF CARCINO, Route [Inhibitor]: INTRAPERITONEAL, Species: MOUSE, Strain/Sex: CD-1/FEMALE, Target Tissue: Type of Lesion: HEMATOPOIETIC SYSTEM: MYELOID LEUKEMIA, Dose [Carcinogen]: 1 G/KG 2/D FOR 5 D EVERY 4 WK FOR 3 COURSES OF TREATMENT, Promoter: NONE USED", "value": "7/137 (5%), 2/35 (6%), -20%, not calculated"},
      {"measurement": "tumour outcome (control, treated, inhibition, significance)", "setting": "Carcinogen: TRANS-5-AMINO-3-[2-(5-NITRO-2-FURYL)VINYL]-1,2,4-OXADIAZOLE;SQL8506, 28754-68-9, Carcinogen: TRANS-5-AMINO-3-[2-(5-NITRO-2-FURYL)VINYL]-1,2,4-OXADIAZOLE;SQL8506, 28754-68-9, Dose [Inhibitor]: 400 MG/KG 16 HR BEFORE THE 1ST CARCINOGEN DOSE FOLLOWED BY ADDITIONAL INJECTIONS IMMEDIATELY BEFORE EACH DOSE OF CARCINO, Route [Inhibitor]: INTRAPERITONEAL, Species: MOUSE, Strain/Sex: CD-1/FEMALE, Target Tissue: Type of Lesion: LYMPHOID TISSUE: NONTHYMIC LYMPHOMA, Dose [Carcinogen]: 1 G/KG 2/D FOR 5 D EVERY 4 WK FOR 3 COURSES OF TREATMENT, Promoter: NONE USED", "value": "8/137 (6%), 3/35 (8%), -33%, not calculated"},
      {"measurement": "tumour outcome (control, treated, inhibition, significance)", "setting": "Carcinogen: TRANS-5-AMINO-3-[2-(5-NITRO-2-FURYL)VINYL]-1,2,4-OXADIAZOLE;SQL8506, 28754-68-9, Carcinogen: TRANS-5-AMINO-3-[2-(5-NITRO-2-FURYL)VINYL]-1,2,4-OXADIAZOLE;SQL8506, 28754-68-9, Dose [Inhibitor]: 400 MG/KG 16 HR BEFORE THE 1ST CARCINOGEN DOSE FOLLOWED BY ADDITIONAL INJECTIONS IMMEDIATELY BEFORE EACH DOSE OF CARCINO, Route [Inhibitor]: INTRAPERITONEAL, Species: MOUSE, Strain/Sex: CD-1/FEMALE, Target Tissue: Type of Lesion: LYMPHOID TISSUE: THYMIC LYMPHOMA, Dose [Carcinogen]: 1 G/KG 2/D FOR 5 D EVERY 4 WK FOR 3 COURSES OF TREATMENT, Promoter: NONE USED", "value": "22/137 (16%), 2/35 (6%), 62%, not calculated"},
      {"measurement": "tumour outcome (control, treated, inhibition, significance)", "setting": "Carcinogen: TRANS-5-AMINO-3-[2-(5-NITRO-2-FURYL)VINYL]-1,2,4-OXADIAZOLE;SQL8506, 28754-68-9, Carcinogen: TRANS-5-AMINO-3-[2-(5-NITRO-2-FURYL)VINYL]-1,2,4-OXADIAZOLE;SQL8506, 28754-68-9, Dose [Inhibitor]: 400 MG/KG 16 HR BEFORE THE 1ST CARCINOGEN DOSE FOLLOWED BY ADDITIONAL INJECTIONS IMMEDIATELY BEFORE EACH DOSE OF CARCINO, Route [Inhibitor]: INTRAPERITONEAL, Species: MOUSE, Strain/Sex: CD-1/FEMALE, Target Tissue: Type of Lesion: STOMACH: SQUAMOUS CARCINOMA, Dose [Carcinogen]: 1 G/KG 2/D FOR 5 D EVERY 4 WK FOR 3 COURSES OF TREATMENT, Promoter: NONE USED", "value": "60/137 (44%), 12/35 (34%), 23%, not calculated"}
    ]},
    {"smiles": "C=CCc1cc(OC)c2c(c1)OCO2", "values": [
      {"measurement": "tumour outcome (control, treated, inhibition, significance)", "setting": "Carcinogen: BENZO[A]PYRENE, 50-32-8, Dose [Inhibitor]: 0, 10 MG SUSPENDED IN 0.3 ML COTTONSEED OIL 3/WK FOR 4 WK ON DAYS OTHER THAN THE CARCINOGEN TREATMENT, 3 ADDITIONAL DOSE, Route [Inhibitor]: GAVAGE, Species: MOUSE, Strain/Sex: STRAIN-A/FEMALE, Target Tissue: Type of Lesion: FORESTOMACH: TUMOR, Dose [Carcinogen]: 1 MG IN 0.3 ML COTTONSEED OIL 2/WK FOR 4 WK, Promoter: NONE USED", "value": "12/17 (71%), 13/18 (72%), -1%, not significant"},
      {"measurement": "tumour outcome (control, treated, inhibition, significance)", "setting": "Carcinogen: BENZO[A]PYRENE, 50-32-8, Dose [Inhibitor]: 0, 10 MG SUSPENDED IN 0.3 ML COTTONSEED OIL 3/WK FOR 4 WK ON DAYS OTHER THAN THE CARCINOGEN TREATMENT, 3 ADDITIONAL DOSE, Route [Inhibitor]: GAVAGE, Species: MOUSE, Strain/Sex: STRAIN-A/FEMALE, Target Tissue: Type of Lesion: LUNG: TUMOR, Dose [Carcinogen]: 1 MG IN 0.3 ML COTTONSEED OIL 2/WK FOR 4 WK, Promoter: NONE USED", "value": "17/17 (100%), 18/18 (100%), 0%, not significant"}
    ]},
    {"smiles": "O=c1cc(-c2ccc(O)c(O)c2)oc2cc(O)cc(O)c12", "values": [
      {"measurement": "tumour outcome (control, treated, inhibition, significance)", "setting": "Carcinogen: 7,12-DIMETHYLBENZ[A]ANTHRACENE, 57-97-6, Dose [Inhibitor]: 0, 0.2 ML OF A 1% SOLUTION 1/D FOR 2 WK APPLIED 5 MIN POST EACH CARCINOGEN DOSE THEN 1/D FOR 4 WK DURING PROMOTION STAGE, Route [Inhibitor]: DERMAL, Species: MOUSE, Strain/Sex: SWISS/MALE, Target Tissue: Type of Lesion: SKIN: PAPILLOMA, Dose [Carcinogen]: 0.2 ML OF A 0.24% SOLUTION IN DMSO 1/D FOR 2 WK, Promoter: CROTON OIL, 8001-28-3", "value": "23/23 (100%), 10/24 (42%), 58%, not calculated"},
      {"measurement": "tumour outcome (control, treated, inhibition, significance)", "setting": "Carcinogen: 7,12-DIMETHYLBENZ[A]ANTHRACENE, 57-97-6, Dose [Inhibitor]: 0, 0.2 ML OF A 1% SOLUTION 1/D FOR 2 WK APPLIED 5 MIN PRIOR TO EACH CARCINOGEN DOSE (STUDY DURATION: 20 WK), Route [Inhibitor]: DERMAL, Species: MOUSE, Strain/Sex: SWISS/MALE, Target Tissue: Type of Lesion: SKIN: PAPILLOMA, Dose [Carcinogen]: 0.2 ML OF A 0.24% SOLUTION IN DMSO 1/D FOR 2 WK, Promoter: CROTON OIL, 8001-28-3", "value": "23/23 (100%), 20/23 (87%), 13%, not calculated"}
    ]}
  ]
}
